# According to paper PMC3109722 (Journal of medicinal chemistry, 2011):
# “Also recorded” adds a separate entry of the source.
# Columns and labels:
# L3MBTL1 [1] = target: T1, L3MBTL1 (Homo sapiens, UniProt Q9Y468); assay: ITC binding to wt L3MBTL1; conditions: single experiments, standard deviations from least square curve fitting
# T1 sequence (Q9Y468 200-522 isoform Q9Y468-1 limits assumed): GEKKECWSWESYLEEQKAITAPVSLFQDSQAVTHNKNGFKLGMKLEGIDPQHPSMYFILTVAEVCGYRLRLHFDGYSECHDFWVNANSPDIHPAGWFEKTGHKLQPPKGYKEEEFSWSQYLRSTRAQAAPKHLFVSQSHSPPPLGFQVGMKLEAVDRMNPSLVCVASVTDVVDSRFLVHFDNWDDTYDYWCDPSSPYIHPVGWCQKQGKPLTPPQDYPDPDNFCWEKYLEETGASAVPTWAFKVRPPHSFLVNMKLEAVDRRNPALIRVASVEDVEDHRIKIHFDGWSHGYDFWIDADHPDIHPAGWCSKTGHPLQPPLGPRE
# L3MBTL1 [2] = target: T1, L3MBTL1; assay: AlphaScreen histone peptide competition, L3MBTL1; conditions: sulfonamide series; footnote a of Table 2: no binding by AlphaScreen
# L3MBTL3 [3] = target: T2, L3MBTL3 (Homo sapiens, UniProt Q96JM7); assay: ITC binding to L3MBTL3; conditions: data not shown
# T2 sequence (Q96JM7 225-555 limits assumed): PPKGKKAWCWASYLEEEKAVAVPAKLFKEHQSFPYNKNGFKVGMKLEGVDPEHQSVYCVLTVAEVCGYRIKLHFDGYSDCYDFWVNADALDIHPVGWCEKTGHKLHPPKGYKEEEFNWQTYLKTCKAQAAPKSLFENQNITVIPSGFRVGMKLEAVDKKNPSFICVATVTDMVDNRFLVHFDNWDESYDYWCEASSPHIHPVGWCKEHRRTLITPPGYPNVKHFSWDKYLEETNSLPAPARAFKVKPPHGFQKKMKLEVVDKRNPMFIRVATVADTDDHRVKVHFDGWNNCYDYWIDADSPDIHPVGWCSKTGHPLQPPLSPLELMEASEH
# PHF13 = target: T3, PHF13 (Homo sapiens, UniProt Q86YI8); assay: AlphaScreen histone peptide competition, PHF13; format: binding; conditions: average of at least two independent trials ± SD
# T3 sequence (Q86YI8 232-280 limits assumed): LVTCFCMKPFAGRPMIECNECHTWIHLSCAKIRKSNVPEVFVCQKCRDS
# L3MBTL3 [4] = target: T2, L3MBTL3; assay: AlphaScreen histone peptide competition, L3MBTL3; format: binding; conditions: average of at least two independent trials ± SD
structure (smiles),measurement,setting,value
C[C@H]1CCN(CCCCCNS(=O)(=O)c2cccc(Br)c2)C1 [Compound 12],3MBTL1 Kd,L3MBTL1 [1],No Binding Interaction
O=S(=O)(NCCOCCN1CCCC1)c1cccc(Br)c1 [Compound 8],Binding by AlphaScreen,L3MBTL1 [2],did not show any activity; also recorded: No Binding ^a
O=C(NCCCCCN1CCCC1)c1cncc(Br)c1 [Compound 7],Binding to L3MBTL3 by ITC,L3MBTL3 [3],Binding was confirmed
same,PHF13 IC50,PHF13,weak binding
same,L3MBTL3 IC50,L3MBTL3 [4],weak binding
O=S(=O)(NCCCCCN1CCOCC1)c1cccc(Br)c1 [Compound 9],Binding by AlphaScreen,L3MBTL1 [2],did not show any activity; also recorded: No Binding ^a
